Reference: PMC7728077, “Double-Headed Cationic Lipopeptides: An Emerging Class of Antimicrobials” (International Journal of Molecular Sciences, 2020)
≈ marks a conversion by molar mass, not a printed value. Square brackets hold non-standard residues; d marks the D form. Peptide text beside a SMILES is read from it. * marks the point of attachment. Palmitoyl = CCCCCCCCCCCCCCCC(=O)*; Dab = NCC[C@H](N)C(=O)O

Legend:
[1] = Surface tension measurements (critical aggregation concentration); type: physicochemical; conditions: Wilhelmy plate method, aqueous solution, 298 K; for Critical aggregation concentration (CAC): surface tension
Protocol: The surface tension was determined in aqueous solution at 298 K by the Wilhelmy plate method using a Force Tensiometer K100 (Krüss, Hamburg, Germany). The results were presented as a function of decimal logarithm of lipopeptide concentration. The critical aggregation concentration (CAC) was defined as the intersection of two straight lines best fitting to data points before and after reaching the CAC point.

[2] = system: MCF-7 breast cancer cell line; type: cell-based, human
[3] = molecular target: POPG large unilamellar vesicles (LUVs); test: Isothermal titration calorimetry, binding to POPG; conditions: ITC, 298.15 K
Protocol: Isothermal titration calorimetry (ITC) experiments were carried out at 298.15 K using an AutoITC isothermal titration calorimeter (MicroCal Inc., GE Healthcare, Northampton, MA, USA) equipped with a 1.4491 mL sample cell and a reference cell. A typical ITC experiment involved a series of consecutive injections of 10.02 µL aliquots of the titrant (2 µL for the first injection only) into the reaction cell, at an interval of 4 min. The stirrer speed was constantly kept at 300 rpm to provide thorough mixing inside the reaction cell. Three types of ITC experiments were performed. These included lipopeptides binding to POPG, POPC, and LPS. The experiments were carried out by titration of 1.3 mM POPG or POPC LUVs into 0.05 or 0.1 mM lipopeptide solutions and the titration of 0.5 or 0.75 mM lipopeptide solution into 200 or 400 µg/mL LPS solution. The molecular mass of LPS was assumed to be 20,000 Da. To assess the heat of dilution, control experiments were performed by titration of an appropriate titrant into PBS. Final results were evaluated with an ITC module for ORIGIN 7 software, provided by MicroCal, Inc. (Northampton, MA, USA). The binding constant, stoichiometry, and enthalpy of interactions were directly determined from ITC experiment by fitting one of the built-in curve fitting models to the experimental data points. Changes in entropy (∆S°) and the Gibbs free energy (∆G°) were calculated from the following equation: ∆G^°=−RTln(55.5Ka)=∆H^°−T∆S^° where 55.5 is the molar concentration of water, R is the gas constant (1.986 cal·mol^−1·K^−1), and T is the absolute temperature.

[4] = system: Pseudomonas aeruginosa ATCC 9027; type: cell-based; conditions: ATCC 9027, 18 h
Excerpt: (§1) Fmoc-Lys(Boc)-OH and the coupling reagents were purchased from GL Biochem (Shanghai, China). Palmitoyl Fmoc-amino acids: Fmoc-Lys(C16)-OH, Fmoc-Orn(C16)-OH, Fmoc-Dab(C16)-OH, and Fmoc-Dap(C16)-OH were acquired from Iris Biotech GmbH (Marktredwitz, Germany). The resin and solvents were purchases from Rapp Polymere (Tübingen, Germany), Merck (Darmstadt, Germany), and Avantor Performance Materials (Gliwice, Poland), respectively. The phospholipids, 1,2-dipalmitoyl-sn-glycero-3-phosphocholine (DPPC), 1,2-dipalmitoyl-sn-glycero-3-[phospho-rac-(1-glycerol)] (DPPG), 1-palmitoyl-2-oleoyl-glycero-3-phosphocholine (POPC) and 1-palmitoyl-2-oleoyl-sn-glycero-3-[phospho-rac-(1-glycerol)] (POPG), were purchased from Avanti Polar Lipids (Alabaster, AL, USA). LPS E. coli 055:B5 and phosphate buffered saline (PBS) were from Sigma-Aldrich (Steinheim, Germany). The Mueller Hinton broth was bought from BIOCORP (Warsaw, Poland) and the RPMI-1640 medium from Sigma-Aldrich (Steinheim, Germany). LIVE/DEAD™ BacLight™ Bacterial Viability Kit was obtained from Thermo Fisher Scientific (Waltham, MA, USA). Bacterial strains (Escherichia coli ATCC 25922, Pseudomonas aeruginosa ATCC 9027, Staphylococcus aureus ATCC 25923, Staphylococcus epidermidis ATCC 1922) and the fungal strain (Candida albicans ATCC 10231) were obtained from the Polish Collection of Microorganisms, Polish Academy of Science, Institute of Immunology and Experimental Therapy, Wroclaw, Poland.
(§2) Antimicrobial activity of the lipopeptides was determined according to the broth microdilution guidelines recommended by the Clinical and Laboratory Standards Institute (CLSI). Minimum inhibitory concentrations (MICs) were assumed as the lowest concentration of the peptide solution, at which the visible growth of microorganisms was inhibited. MIC values of lipopeptides against bacteria were evaluated in the Mueller–Hinton broth and against fungus in the RPMI-1640 medium. Initial inoculums of bacteria and fungus (with concentrations of 5 × 10^5 CFU/mL and 2 × 10^3 CFU/mL, respectively) were exposed to increasing concentrations of lipopeptides solutions over the range of 1–512 µg/mL. […] The 96-well plates filled with appropriate inoculums and the tested compounds were incubated for 18 h at 37 °C. Presented values are the mean of the results obtained in three independent experiments.

[5] = system: Candida albicans ATCC 10231; type: cell-based; conditions: ATCC 10231, 18 h
Excerpt: as §1, §2

[6] = system: Staphylococcus epidermidis ATCC 1922; type: cell-based; conditions: ATCC 1922, 18 h
Excerpt: as §1, §2

[7] = system: Staphylococcus aureus ATCC 25923; type: cell-based; conditions: ATCC 25923, 18 h
Excerpt: as §1, §2

[8] = system: Escherichia coli ATCC 25922; type: cell-based; conditions: ATCC 25922, 18 h
Excerpt: as §1, §2

[9] = Analytical RP-HPLC retention time as measure of hydrophobicity; type: physicochemical; conditions: Jupiter 4 µ Proteo 90 Å 250 x 4.60 mm, linear gradient 15-90% B in A in 30 min, 1 ml/min, A 0.1% aqueous TFA, B 80% acetonitrile in water with 0.1% TFA
Protocol: The lipopeptides were purified in a Waters RP-HPLC preparative system (Jupiter 4 µ Proteo column, 90 Å, 250 × 10 mm) with the linear gradient of solution B in A from 30% to 60% (A, 0.1% solution of TFA in water and B, 80% solution of ACN in water containing 0.1% of TFA) in 40 min with a flow rate of 5 mL/min. Final purity of the analogues (at least 97%) was determined using an analytical RP-HPLC Shimadzu system (Jupiter 4 µ Proteo column, 90 Å, 250 × 4.60 mm) with the linear gradient of solution B in A from 15% to 90% in 30 min with a flow rate of 1 mL/min. Identity of lipopeptides was confirmed by MALDI-TOF mass spectrometry. Analytical data of the synthesized analogues are presented in Table S1 (Supplementary Materials). ^a linear gradient 15-90% of B in A for 30 min, flow rate 1 ml/min, RP-HPLC Shimadzu system, column: Jupiter 4 µ Proteo, 90 Å, 250 x 4.60 mm; A – 0.1% aqueous TFA solution, B – 80% solution of acetonitrile in water with 0.1% of TFA; ^b molecular masses were determined using MALDI-TOF mass spectrometer.

[10] = intersection of two fitted lines
[11] = 1.3 mM POPG LUVs into lipopeptide, PBS, single transition or first line of two binding events

SMILES | γCAC, surface tension at the CAC point [1] [mN/m] | Critical aggregation concentration (CAC) [1] [mg/mL] | Critical aggregation concentration (CAC) [1, 10] [mM] | IC50, MCF-7 (48h) [2] [mg/L] | pKITC, POPG [3, 11] | pKITC, POPG ([3]; second line printed for the peptide (second binding event)) | MIC, P. aeruginosa [4] [mg/L] | MIC, C. albicans [5] [mg/L] | MIC, S. epidermidis [6] [mg/L] | MIC, S. aureus [7] [mg/L] | MIC, E. coli [8] [mg/L] | Retention time (used as measure of hydrophobicity) [9] [min]
CCCCCCCCCCCCCCCC(=O)NCC[C@H](NC(=O)[C@@H](N)CCCCN)C(=O)N[C@@H](CCCCN)C(N)=O [K(DabC16)K-NH2] (H-Lys-[Dab](Palmitoyl)-Lys-NH2) | 39.8 | 4.0 | 6.6 | 16.28 ± 1.02 (≈ 26.6 µM) | 8.09 ± 0.37 | 6.59 ± 0.26 | 16 (≈ 26.1 µM) | 16 (≈ 26.1 µM) | 8 (≈ 13.1 µM) | 8 (≈ 13.1 µM) | 8 (≈ 13.1 µM) | 23.974
CCCCCCCCCCCCCCCC(=O)NCCC[C@H](NC(=O)[C@@H](N)CCCCN)C(=O)N[C@@H](CCCCN)C(N)=O [K(OC16)K-NH2] | 39.2 | 3.7 | 5.9 | 15.47 ± 1.04 (≈ 24.7 µM) | 5.79 ± 0.12 | – | 8 (≈ 12.8 µM) | 8 (≈ 12.8 µM) | 8 (≈ 12.8 µM) | 8 (≈ 12.8 µM) | 8 (≈ 12.8 µM) | 24.204
CCCCCCCCCCCCCCCC(=O)NCCCC[C@H](NC(=O)[C@H](CCCCN)NC(=O)[C@@H](N)CCCCN)C(=O)N[C@@H](CCCCN)C(=O)N[C@@H](CCCCN)C(N)=O [KK(KC16)KK-NH2] (H-KKK(Palmitoyl)KK-NH2) | – | – | – | >25 | – | – | 16 (≈ 17.9 µM) | 16 (≈ 17.9 µM) | 8 (≈ 8.93 µM) | 8 (≈ 8.93 µM) | 4 (≈ 4.46 µM) | 21.745
CCCCCCCCCCCCCCCC(=O)NCCCC[C@H](NC(=O)[C@@H](N)CCCCN)C(=O)N[C@@H](CCCCN)C(N)=O [K(KC16)K-NH2] | 43.0 | 3.5 | 5.4 | 22.71 ± 0.79 (≈ 35.5 µM) | 5.66 ± 0.11 | – | 16 (≈ 25 µM) | 8 (≈ 12.5 µM) | 8 (≈ 12.5 µM) | 4 (≈ 6.25 µM) | 8 (≈ 12.5 µM) | 24.731
